Reference: patent US8278345B2, “Inhibitors of glutaminyl cyclase” (Probiodrug AG, priority 2006, dated 2012)
Like-named read-outs stand apart in the source and are kept apart here.

Biological target: hQC (Homo sapiens, UniProt Q16769)
Test: Inhibitor assay for glutaminyl cyclase activity (fluorometric, H-Gln-βNA / H-Gln-AMC)
Format: biochemical
Method: All measurements were performed with a BioAssay Reader HTS-7000Plus for microplates (Perkin Elmer) at 30° C. QC activity was evaluated fluorometrically using H-Gln-βNA. The samples consisted of 0.2 mM fluorogenic substrate, 0.25 U pyroglutamyl aminopeptidase (Unizyme, Hørsholm, Denmark) in 0.2 M Tris/HCl, pH 8.0 containing 20 mM EDTA and an appropriately diluted aliquot of QC in a final volume of 250 μl. Excitation/emission wavelengths were 320/410 nm. The assay reactions were initiated by addition of glutaminyl cyclase. QC activity was determined from a standard curve of β-naphthylamine under assay conditions. One unit is defined as the amount of QC catalyzing the formation of 1 μmol pGlu-βNA from H-Gln-βNA per minute under the described conditions.
In a second fluorometric assay, QC activity was determined using H-Gln-AMC as substrate. Reactions were carried out at 30° C. utilizing the NOVOStar reader for microplates (BMG labtechnologies). The samples consisted of varying concentrations of the fluorogenic substrate, 0.1 U pyroglutamyl aminopeptidase (Qiagen) in 0.05 M Tris/HCl, pH 8.0 containing 5 mM EDTA and an appropriately diluted aliquot of QC in a final volume of 250 μl. Excitation/emission wavelengths were 380/460 nm. The assay reactions were initiated by addition of glutaminyl cyclase. QC activity was determined from a standard curve of 7-amino-4-methylcoumarin under assay conditions. The kinetic data were evaluated using GraFit sofware.
For inhibitor testing, the sample composition was the same as described above, except of the putative inhibitory compound added. For a rapid test of QC-inhibition, samples contained 4 mM of the respective inhibitor and a substrate concentration at 1 KM. For detailed investigations of the inhibition and determination of Ki-values, influence of the inhibitor on the auxiliary enzymes was investigated first. In every case, there was no influence on either enzyme detected, thus enabling the reliable determination of the QC inhibition. The inhibitory constant was evaluated by fitting the set of progress curves to the general equation for competitive inhibition using GraFit software.

[1] = compound from preparative synthesis, purified, read-out: IC50 hQC

Sequence of hQC (Q16769 29-361): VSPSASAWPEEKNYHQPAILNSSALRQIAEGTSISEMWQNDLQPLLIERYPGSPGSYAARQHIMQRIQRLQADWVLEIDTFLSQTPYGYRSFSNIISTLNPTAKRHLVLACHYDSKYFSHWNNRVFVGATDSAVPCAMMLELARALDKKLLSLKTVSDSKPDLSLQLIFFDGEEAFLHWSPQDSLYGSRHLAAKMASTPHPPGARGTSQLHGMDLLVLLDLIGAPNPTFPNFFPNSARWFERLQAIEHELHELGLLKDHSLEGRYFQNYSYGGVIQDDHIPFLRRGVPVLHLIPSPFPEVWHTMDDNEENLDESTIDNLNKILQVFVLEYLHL

CC1=C(O)C(=O)N(CCCn2ccnc2)C1C(F)(F)F (stereo not shown) [Compound 38, 3-Hydroxy-1-(3-imidazol-1-yl-propyl)-4-methyl-5-trifluoromethyl-1,5-dihydro-pyrrol-2-one]
IC50 (read-out: IC50): 2.2 µM

CCCCC1C(c2ccccc2)=C(O)C(=O)N1CCCn1ccnc1 (stereo not shown) [Compound 107, 5-Butyl-3-hydroxy-1-(3-imidazol-1-yl-propyl)-4-phenyl-1,5-dihydro-pyrrol-2-one]
IC50 [1]: 0.524 µM | IC50 (read-out: IC50): 0.04 µM

CCC1=C(O)C(=O)N(CCCn2ccnc2)C1C1=CCCCC1 (stereo not shown) [Compound 238, 5-Cyclohex-1-enyl-4-ethyl-3-hydroxy-1-(3-imidazol-1-yl-propyl)-1,5-dihydro-pyrrol-2-one]
IC50 (read-out: IC50): 0.04 µM

Cc1cc(C2C(c3ccccc3)=C(O)C(=O)N2c2ccc3[nH]cnc3c2)oc1C (stereo not shown) [Compound 395, 1-(1H-Benzoimidazol-5-yl)-5-(4,5-dimethyl-furan-2-yl)-3-hydroxy-4-phenyl-1,5-dihydro-pyrrol-2-one]
IC50 (read-out: IC50): 1.39 µM

CC1=C(O)C(=O)N(CCCn2ccnc2)C1c1ccc(C)cc1 (stereo not shown) [Compound 21, 3-Hydroxy-1-(3-imidazol-1-yl-propyl)-4-methyl-5-p-tolyl-1,5-dihydro-pyrrol-2-one]
IC50 (read-out: IC50): 2.2 µM

CC1=C(O)C(=O)N(CCCn2ccnc2)C1c1ccc2[nH]ccc2c1 (stereo not shown) [Compound 26, 3-Hydroxy-1-(3-imidazol-1-yl-propyl)-5-(1H-indol-5-yl)-4-methyl-1,5-dihydro-pyrrol-2-one]
IC50 (read-out: IC50): 0.04 µM

Cc1cccc(C2C(C(=O)c3ccsc3)=C(O)C(=O)N2c2ccc3[nH]cnc3c2)n1 (stereo not shown) [Compound 306, 1-(1H-Benzoimidazol-5-yl)-3-hydroxy-5-(6-methyl-pyridin-2-yl)-4-(thiophene-3-carbonyl)-1,5-dihydro-pyrrol-2-one]
IC50 (read-out: IC50): 0.4 µM

CCC1=C(O)C(=O)N(CCCn2ccnc2)C1c1cccc(O)c1 (stereo not shown) [Compound 252, 4-Ethyl-3-hydroxy-5-(3-hydroxy-phenyl)-1-(3-imidazol-1-yl-propyl)-1,5-dihydro-pyrrol-2-one]
IC50 (read-out: IC50): 0.4 µM

CCC1=C(O)C(=O)N(c2ccc3[nH]cnc3c2)C1c1cc(F)cc(F)c1F (stereo not shown) [Compound 315, 1-(1H-Benzoimidazol-5-yl)-4-ethyl-3-hydroxy-5-(2,3,5-trifluoro-phenyl)-1,5-dihydro-pyrrol-2-one]
IC50 (read-out: IC50): 1.48 µM

CCCCCC1=C(O)C(=O)N(CCCn2ccnc2)C1c1ccc(C)o1 (stereo not shown) [Compound 191, 3-Hydroxy-1-(3-imidazol-1-yl-propyl)-5-(5-methyl-furan-2-yl)-4-pentyl-1,5-dihydro-pyrrol-2-one]
IC50 [1]: 1.75 µM | IC50 (read-out: IC50): 0.04 µM

O=C1C(O)=C(c2c[nH]c3ccccc23)C(c2cnc3ccccc3c2)N1c1ccc2[nH]cnc2c1 (stereo not shown) [Compound 422, 1-(1H-Benzoimidazol-5-yl)-3-hydroxy-4-(1H-indol-3-yl)-5-quinolin-3-yl-1,5-dihydro-pyrrol-2-one]
IC50 [1]: 0.575 µM | IC50 (read-out: IC50): 0.004 µM

Cc1ccc(C2C(c3cccc(O)c3)=C(O)C(=O)N2CCCn2ccnc2)cc1C (stereo not shown) [Compound 15, 5-(3,4-Dimethyl-phenyl)-3-hydroxy-4-(3-hydroxy-phenyl)-1-(3-imidazol-1-yl-propyl)-1,5-dihydro-pyrrol-2-one]
IC50 (read-out: IC50): 1.3 µM

Cn1cc(C2C(CC(=O)O)=C(O)C(=O)N2c2ccc3[nH]cnc3c2)c2ccccc21 (stereo not shown) [Compound 322, [1-(1H-Benzoimidazol-5-yl)-4-hydroxy-2-(1-methyl-1H-indol-3-yl)-5-oxo-2,5-dihydro-1H-pyrrol-3-yl]-acetic acid]
IC50 (read-out: IC50): 5.8 µM

CCCC(=O)C1=C(O)C(=O)N(c2ccc3[nH]cnc3c2)C1c1cc[nH]n1 (stereo not shown) [Compound 378, 1-(1H-Benzoimidazol-5-yl)-4-butyryl-3-hydroxy-5-(1H-pyrazol-3-yl)-1,5-dihydro-pyrrol-2-one]
IC50 (read-out: IC50): 4 µM

O=C(C1=C(O)C(=O)N(c2ccc3[nH]cnc3c2)C1c1cc[nH]n1)C1CCCCC1 (stereo not shown) [Compound 379, 1-(1H-Benzoimidazol-5-yl)-4-cyclohexanecarbonyl-3-hydroxy-5-(1H-pyrazol-3-yl)-1,5-dihydro-pyrrol-2-one]
IC50 (read-out: IC50): 5.26 µM

CCC1=C(O)C(=O)N(CCCn2ccnc2)C1c1ccc(OC)cc1 (stereo not shown) [Compound 229, 4-Ethyl-3-hydroxy-1-(3-imidazol-1-yl-propyl)-5-(4-methoxy-phenyl)-1,5-dihydro-pyrrol-2-one]
IC50 (read-out: IC50): 0.04 µM

CC(C)C1=C(O)C(=O)N(CCCn2ccnc2)C1c1ccc(CO)o1 (stereo not shown) [Compound 63, 3-Hydroxy-5-(5-hydroxymethyl-furan-2-yl)-1-(3-imidazol-1-yl-propyl)-4-isopropyl-1,5-dihydro-pyrrol-2-one]
IC50 (read-out: IC50): 3.1 µM

CCCCCC1C(C(C)C)=C(O)C(=O)N1CCCn1ccnc1 (stereo not shown) [Compound 62, 3-Hydroxy-1-(3-imidazol-1-yl-propyl)-4-isopropyl-5-pentyl-1,5-dihydro-pyrrol-2-one]
IC50 (read-out: IC50): 0.04 µM

CCCCC1C(c2ccc(O)cc2)=C(O)C(=O)N1CCCn1ccnc1 (stereo not shown) [Compound 177, 5-Butyl-3-hydroxy-4-(4-hydroxy-phenyl)-1-(3-imidazol-1-yl-propyl)-1,5-dihydro-pyrrol-2-one]
IC50 (read-out: IC50): 0.04 µM

Cc1[nH]c2ccccc2c1C1C(c2c[nH]c3ccccc23)=C(O)C(=O)N1c1ccc2[nH]cnc2c1 (stereo not shown) [Compound 285, 1-(1H-Benzoimidazol-5-yl)-3-hydroxy-4-(1H-indol-3-yl)-5-(2-methyl-1H-indol-3-yl)-1,5-dihydro-pyrrol-2-one]
IC50 (read-out: IC50): 5.71 µM

Cc1ccc2c(C3C(c4ccc(O)cc4)=C(O)C(=O)N3CCCn3ccnc3)c[nH]c2c1 (stereo not shown) [Compound 165, 3-Hydroxy-4-(4-hydroxy-phenyl)-1-(3-imidazol-1-yl-propyl)-5-(6-methyl-1H-indol-3-yl)-1,5-dihydro-pyrrol-2-one]
IC50 (read-out: IC50): 0.04 µM

CCC1=C(O)C(=O)N(c2ccc3[nH]cnc3c2)C1c1cc(C)ccc1O (stereo not shown) [Compound 282, 1-(1H-Benzoimidazol-5-yl)-4-ethyl-3-hydroxy-5-(2-hydroxy-5-methyl-phenyl)-1,5-dihydro-pyrrol-2-one]
IC50 (read-out: IC50): 0.67 µM

CCCCCC1=C(O)C(=O)N(CCCn2ccnc2)C1c1cccc(O)c1 (stereo not shown) [Compound 219, 3-Hydroxy-5-(3-hydroxy-phenyl)-1-(3-imidazol-1-yl-propyl)-4-pentyl-1,5-dihydro-pyrrol-2-one]
IC50 [1]: 0.698 µM | IC50 (read-out: IC50): 0.04 µM

CCC1=C(O)C(=O)N(CCCn2ccnc2)C1C(F)(F)F (stereo not shown) [Compound 240, 4-Ethyl-3-hydroxy-1-(3-imidazol-1-yl-propyl)-5-trifluoromethyl-1,5-dihydro-pyrrol-2-one]
IC50 (read-out: IC50): 0.04 µM

CCC1=C(O)C(=O)N(c2ccc3[nH]cnc3c2)C1c1cc(Cl)ccc1O (stereo not shown) [Compound 276, 1-(1H-Benzoimidazol-5-yl)-5-(5-chloro-2-hydroxy-phenyl)-4-ethyl-3-hydroxy-1,5-dihydro-pyrrol-2-one]
IC50 (read-out: IC50): 4.36 µM

CCCC1C(C(C)C)=C(O)C(=O)N1CCCn1ccnc1 (stereo not shown) [Compound 55, 3-Hydroxy-1-(3-imidazol-1-yl-propyl)-4-isopropyl-5-propyl-1,5-dihydro-pyrrol-2-one]
IC50 (read-out: IC50): 5.8 µM

CC(C)CC(=O)C1=C(O)C(=O)N(c2ccc3[nH]cnc3c2)C1c1c(F)c(F)cc(F)c1F (stereo not shown) [Compound 423, 1-(1H-Benzoimidazol-5-yl)-3-hydroxy-4-(3-methyl-butyryl)-5-(2,3,5,6-tetrafluoro-phenyl)-1,5-dihydro-pyrrol-2-one]
IC50 (read-out: IC50): 0.04 µM

O=C(O)c1ccc(C2C(c3c[nH]c4ccccc34)=C(O)C(=O)N2c2ccc3[nH]cnc3c2)o1 (stereo not shown) [Compound 451, 5-[1-(1H-Benzoimidazol-5-yl)-4-hydroxy-3-(1H-indol-3-yl)-5-oxo-2,5-dihydro-1H-pyrrol-2-yl]-furan-2-carboxylic acid]
IC50 (read-out: IC50): 2.56 µM

CCCC(=O)C1=C(O)C(=O)N(c2ccc3[nH]cnc3c2)C1c1ccc(O)c(Br)c1 (stereo not shown) [Compound 344, 1-(1H-Benzoimidazol-5-yl)-5-(3-bromo-4-hydroxy-phenyl)-4-butyryl-3-hydroxy-1,5-dihydro-pyrrol-2-one]
IC50 (read-out: IC50): 0.4 µM

O=C1C(O)=C(c2c[nH]c3ccccc23)C(c2ccco2)N1CCCn1ccnc1 (stereo not shown) [Compound 140, 5-Furan-2-yl-3-hydroxy-1-(3-imidazol-1-yl-propyl)-4-(1H-indol-3-yl)-1,5-dihydro-pyrrol-2-one]
IC50 (read-out: IC50): 0.4 µM

CCCCCC(=O)C1=C(O)C(=O)N(c2ccc3[nH]cnc3c2)C1c1cccc(C)c1 (stereo not shown) [Compound 411, 1-(1H-Benzoimidazol-5-yl)-4-hexanoyl-3-hydroxy-5-m-tolyl-1,5-dihydro-pyrrol-2-one]
IC50 (read-out: IC50): 1.39 µM

CCCCCC1=C(O)C(=O)N(CCCn2ccnc2)C1c1ccccc1 (stereo not shown) [Compound 199, 3-Hydroxy-1-(3-imidazol-1-yl-propyl)-4-pentyl-5-phenyl-1,5-dihydro-pyrrol-2-one]
IC50 (read-out: IC50): 0.04 µM

CC(=O)C1=C(O)C(=O)N(c2ccc3[nH]cnc3c2)C1c1cc[n+]([O-])cc1 (stereo not shown) [Compound 397, 4-Acetyl-1-(1H-benzoimidazol-5-yl)-3-hydroxy-5-(1-oxy-pyridin-4-yl)-1,5-dihydro-pyrrol-2-one]
IC50 (read-out: IC50): 1.21 µM
